# Source: ChEMBL document CHEMBL1150179, “The cytotoxic principles of Solanum incanum” (1990)
# Columns and labels:
# [1] = Cytotoxicity against human PLC/PRF/5 cells by microassay; assay type: functional; details: read-out: ED50 (the source's name)
# [2] = test system: KB; test: Cytotoxicity against human KB cells by microassay; assay type: functional; details: read-out: ED50 (the source's name)
SMILES,EC50 [1] [µg/mL],EC50 [2] [µg/mL]
CCCCCCCCCCCCCCCC(=O)O[C@H]1CC[C@]2(C)[C@H]3CC=C4[C@@H]5[C@@H](C)[C@H](C)CC[C@]5(C(=O)O)CC[C@@]4(C)[C@]3(C)CC[C@H]2C1(C)C,3.54,–
C/C=C/C(=O)O[C@H]1CC[C@]2(C)[C@H]3CC=C4[C@@H]5[C@@H](C)[C@H](C)CC[C@]5(C(=O)O)CC[C@@]4(C)[C@]3(C)CC[C@H]2C1(C)C,2.59,–
CCC(=O)O[C@H]1CC[C@]2(C)[C@H]3CC=C4[C@@H]5[C@@H](C)[C@H](C)CC[C@]5(C(=O)O)CC[C@@]4(C)[C@]3(C)CC[C@H]2C1(C)C,2.54,–
C[C@H]1[C@H](C)CC[C@]2(C(=O)O)CC[C@]3(C)C(=CC[C@@H]4[C@@]5(C)CC[C@H](OC(=O)c6ccccc6)C(C)(C)[C@@H]5CC[C@]43C)[C@H]12,6.89,–
C[C@H]1[C@H](C)CC[C@]2(C(=O)O)CC[C@]3(C)C(=CC[C@@H]4[C@@]5(C)CC[C@H](OC(=O)/C=C/c6ccccc6)C(C)(C)[C@@H]5CC[C@]43C)[C@H]12,7.24,–
CC[C@H](C[C@@H](O)[C@@H](C)[C@H]1CC[C@H]2C3=CC(=O)[C@H]4[C@H](C)[C@@H](OC(=O)c5ccccc5)CC[C@]4(C)[C@H]3CC[C@]12C)C(C)C [CARPESTEROL],8.47,–
C[C@@H]1CC[C@@]2(NC1)O[C@H]1C[C@H]3[C@@H]4CC=C5C[C@@H](O[C@@H]6O[C@H](CO)[C@@H](O[C@@H]7O[C@@H](C)[C@H](O)[C@@H](O)[C@H]7O)[C@H](O)[C@H]6O)CC[C@]5(C)[C@H]4CC[C@]3(C)[C@H]1[C@@H]2C [KHASIANINE],8.6,–
C[C@@H]1CC[C@@]2(NC1)O[C@H]1C[C@H]3[C@@H]4CC=C5C[C@@H](O[C@@H]6O[C@H](CO)[C@@H](O[C@@H]7O[C@@H](C)[C@H](O)[C@@H](O)[C@H]7O)[C@H](O)[C@H]6O[C@@H]6O[C@@H](C)[C@H](O)[C@@H](O)[C@H]6O)CC[C@]5(C)[C@H]4CC[C@]3(C)[C@H]1[C@@H]2C [SOLAMARGINE],1.53,–
C[C@@H]1CC[C@]2(NC1)O[C@H]1C[C@H]3[C@@H]4CC=C5C[C@@H](O)CC[C@]5(C)[C@H]4CC[C@]3(C)[C@H]1[C@@H]2C [SOLASODINE],3.75,3.74
C[C@H]1[C@H](C)CC[C@]2(C(=O)O)CC[C@]3(C)C(=CC[C@@H]4[C@@]5(C)CC[C@H](O)C(C)(C)[C@@H]5CC[C@]43C)[C@H]12 [URSOLIC ACID],3.89,3.76
